No end group written: not given here.
T1: human TAS1R2-I234V/TAS1R3-WT (Homo sapiens, UniProt Q7RTX0+Q8TE23, I234V)
T1 construct: expressed in transfected cells; host or cells: HEK293T-Gα16gust44
T1 sequence (Q8TE23 20-839 I234V): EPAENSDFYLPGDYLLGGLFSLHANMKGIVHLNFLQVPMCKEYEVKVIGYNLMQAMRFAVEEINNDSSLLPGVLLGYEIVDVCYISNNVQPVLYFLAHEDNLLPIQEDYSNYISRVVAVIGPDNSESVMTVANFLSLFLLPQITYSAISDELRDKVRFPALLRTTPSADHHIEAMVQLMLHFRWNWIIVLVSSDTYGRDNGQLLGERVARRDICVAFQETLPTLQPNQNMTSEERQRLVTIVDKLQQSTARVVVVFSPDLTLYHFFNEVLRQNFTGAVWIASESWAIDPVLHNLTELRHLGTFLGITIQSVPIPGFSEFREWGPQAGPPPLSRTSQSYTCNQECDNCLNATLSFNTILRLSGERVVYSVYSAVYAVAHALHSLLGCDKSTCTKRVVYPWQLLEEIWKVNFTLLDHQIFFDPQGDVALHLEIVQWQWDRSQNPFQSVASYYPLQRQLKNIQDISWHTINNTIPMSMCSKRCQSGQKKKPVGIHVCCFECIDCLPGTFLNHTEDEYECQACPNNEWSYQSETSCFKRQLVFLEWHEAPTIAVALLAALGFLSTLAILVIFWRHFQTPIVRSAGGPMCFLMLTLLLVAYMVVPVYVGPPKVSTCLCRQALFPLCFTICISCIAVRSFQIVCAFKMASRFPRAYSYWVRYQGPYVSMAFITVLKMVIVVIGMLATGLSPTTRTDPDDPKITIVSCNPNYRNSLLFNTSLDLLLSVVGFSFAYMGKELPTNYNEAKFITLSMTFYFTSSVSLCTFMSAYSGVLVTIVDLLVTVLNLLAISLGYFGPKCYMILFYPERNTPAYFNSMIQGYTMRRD
T1 sequence (Q7RTX0 21-852): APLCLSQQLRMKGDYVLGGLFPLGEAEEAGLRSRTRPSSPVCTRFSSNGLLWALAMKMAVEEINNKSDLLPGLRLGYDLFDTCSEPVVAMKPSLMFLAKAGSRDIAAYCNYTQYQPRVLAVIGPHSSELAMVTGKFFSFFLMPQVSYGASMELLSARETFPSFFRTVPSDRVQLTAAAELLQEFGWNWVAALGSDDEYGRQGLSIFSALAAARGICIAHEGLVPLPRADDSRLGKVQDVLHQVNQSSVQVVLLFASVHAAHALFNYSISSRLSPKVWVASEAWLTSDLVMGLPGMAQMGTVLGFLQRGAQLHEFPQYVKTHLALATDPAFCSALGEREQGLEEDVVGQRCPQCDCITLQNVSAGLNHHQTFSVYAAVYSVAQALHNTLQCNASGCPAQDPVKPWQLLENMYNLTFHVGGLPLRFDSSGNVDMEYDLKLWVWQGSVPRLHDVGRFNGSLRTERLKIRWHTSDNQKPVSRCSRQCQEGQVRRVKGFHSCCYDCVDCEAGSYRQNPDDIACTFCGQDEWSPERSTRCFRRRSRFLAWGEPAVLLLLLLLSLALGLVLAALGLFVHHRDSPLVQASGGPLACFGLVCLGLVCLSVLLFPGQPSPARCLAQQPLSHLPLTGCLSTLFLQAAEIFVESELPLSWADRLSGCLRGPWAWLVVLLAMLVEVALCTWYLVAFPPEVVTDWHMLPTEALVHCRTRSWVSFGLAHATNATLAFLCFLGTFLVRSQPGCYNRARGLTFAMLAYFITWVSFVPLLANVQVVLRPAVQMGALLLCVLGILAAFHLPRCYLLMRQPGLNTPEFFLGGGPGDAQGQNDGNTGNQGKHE

B1: thaumatin (protein)
chain: ATFEIVNRCSYTVWAAASKGDAALDAGGRQLNSGESWTINVEPGTKGGKIWARTDCYFDDSGSGICKTGDCGGLLRCKRFGRPPTTLAEFSLNQYGKDYIDISNIKGFNVPMDFSPTTRGCRGVRCAADIVGQCPAKLKAPGGGCNDACTVFQTSEYCCTTGKCGPTEYSRFFKRLCPDAFSYVLDKPTTVTCPGSSNYRVTFCPTA
modifications: Eight disulfides
notes: sweet-tasting plant protein, E957

Target: T1, human TAS1R2-I234V/TAS1R3-WT
Assay: Calcium mobilisation assay, TAS1R2 variant I234V with TAS1R3-WT
Format: cell-based
Details: for Max ΔF/F0: maximal signal amplitude
Text: The coding sequences for TAS1R2 and TAS1R3 were commercially synthesised, and the human codon was optimised for expression in human cells. The coding sequences of human TAS1R2 and TAS1R3 were subcloned and inserted into the mammalian expression vectors pcDNA6/myc-HisA and pcDNA4/myc-HisA (Invitrogen; Thermo Fisher Scientific; Illkirch, France) between the EcoRI and NotI restriction sites, generating the plasmids pcDNA6-TAS1R2 and pcDNA4-TAS1R3, respectively. To increase protein expression in mammalian cells, an upstream start codon was used, which was a sequence called MAX, corresponding to the QBI SP163 element also described in pcDNA4-HisMax (Invitrogen; Thermo Fisher Scientific; Illkirch, France). To measure the expression level of the receptor by immunohistochemistry, we used the FLAG sequence ([…]) in the C-terminal position, which encodes the FLAG tag epitope. SNP variants of TAS1R2 and TAS1R3 were constructed based on […], respectively, using site-directed mutagenesis (Genewiz; Leipzig, Germany).
The HEK293T cells were kindly provided by Jay P. Slack (Givaudan Flavors Corporation; Cincinnati, OH, USA). HEK293T cells stably transfected with Gα16gust44 [43, 67] were seeded in poly-D-lysine-coated clear-bottom black 96-well plates (0.35 × 10^5 cells/well) in high-glucose DMEM supplemented with 2 mM GlutaMAX, 10% dialysed foetal bovine serum with penicillin/streptomycin and G418 (400 μg/mL) at 37 °C and 6.3% CO2 in a humidified atmosphere as previously reported. […] As a negative control, HEK293T cells were mock-transfected with the empty expression vector. After a further 24 h of incubation, the HEK293T cells were washed with C1 buffer (130 mM NaCl, 5 mM KCl, 10 mM HEPES pH 7.4 and 2 mM CaCl2). The 96-well plates containing the cells were then stimulated with sweet-tasting compounds. […] Different concentration ranges were tested depending on the sweet compound injected. The Ca^2+ changes were expressed as fractional changes in fluorescent light intensity: ΔF/F = (F − F0)/F0, where F was the fluorescent light intensity at each point, and F0 was the value of emitted fluorescent light prior to stimulus application. To calculate dose–response relationships, the changes in fluorescence upon stimulus application were averaged, mock-subtracted and baseline-corrected. The dose–response data obtained were adjusted using a 4-parameter logistic equation. The half-maximal effective concentrations (EC50 values) and maximal signal amplitudes were calculated using SigmaPlot software (version 15.0) (Systat Software; San Jose, CA, USA).
For in vitro calcium mobilisation assay performed on hTAS1R2-SNPs, hTAS1R3-SNPs and mTAS1R3-I60T, 6 to 7 concentrations were tested for each sweet compound, plus buffer alone. All concentration–receptor combinations were measured in duplicate, and each experiment was repeated at least 4 times (8 wells/concentration). Results were expressed for each concentration as ΔF/F mean ± SEM and represented as dose–response curves.

Molecule	EC50	R1 = Variant EC50/WT EC50	Max ΔF/F0
CC1=CC(=O)NS(=O)(=O)O1 [Acesulfame K, acesulfame K]	510 ± 63 µM	0.7	0.41 ± 0.02
O=S(=O)(O)NC1CCCCC1 [Cyclamate, cyclamate]	2250 ± 42 µM		
C[C@H](CC[C@@H](O[C@@H]1O[C@H](CO[C@@H]2O[C@H](CO)[C@@H](O)[C@H](O)[C@H]2O)[C@@H](O)[C@H](O)[C@H]1O[C@@H]1O[C@H](CO)[C@@H](O)[C@H](O)[C@H]1O)C(C)(C)O)[C@H]1CC[C@@]2(C)[C@@H]3CC=C4[C@@H](CC[C@H](O[C@@H]5O[C@H](CO[C@@H]6O[C@H](CO)[C@@H](O)[C@H](O)[C@H]6O)[C@@H](O)[C@H](O)[C@H]5O)C4(C)C)[C@]3(C)[C@H](O)C[C@]12C [Mogroside V, mogroside V]	19.4 ± 1.6 µM	1.1	1.28 ± 0.04
COc1ccc(CCC(=O)c2c(O)cc(O[C@@H]3O[C@H](CO)[C@@H](O)[C@H](O)[C@H]3O[C@@H]3O[C@@H](C)[C@H](O)[C@@H](O)[C@H]3O)cc2O)cc1O [NHDC, neohesperidin dihydrochalcone]	94.7 ± 6.8 µM	1.2	0.80 ± 0.02
COC(=O)[C@H](Cc1ccccc1)NC(=O)[C@H](CC(=O)O)NCCC(C)(C)C [Neotame]	0.8 ± 0.08 µM	1.0	0.66 ± 0.02
C=C(C)[C@@H]1CC=C(/C=N/O)CC1 [Perillartine, perillartine]	20.1 ± 1.1 µM	1.1	1.52 ± 0.03
C=C1C[C@@]23CC[C@H]4[C@@](C)(CCC[C@@]4(C)C(=O)O[C@@H]4O[C@H](CO)[C@@H](O)[C@H](O[C@@H]5O[C@H](CO)[C@@H](O)[C@H](O)[C@H]5O)[C@H]4O[C@@H]4O[C@H](CO)[C@@H](O)[C@H](O)[C@H]4O)[C@@H]2CC[C@]1(O[C@@H]1O[C@H](CO)[C@@H](O)[C@H](O[C@@H]2O[C@H](CO)[C@@H](O)[C@H](O)[C@H]2O)[C@H]1O[C@@H]1O[C@H](CO)[C@@H](O)[C@H](O)[C@H]1O)C3 [Rebaudioside M, rebaudioside M]	18.4 ± 0.6 µM	1.1	1.14 ± 0.01
OC[C@H]1O[C@H](O[C@]2(CCl)O[C@H](CCl)[C@@H](O)[C@@H]2O)[C@H](O)[C@@H](O)[C@H]1Cl [Sucralose]	60 ± 7 µM	0.7	0.75 ± 0.03
brazzein (QDKCKKVYENYPVSKCQLANQCNYDCKLDKHARSGECFYDEKRNLQCICDYCEY; ends and bridges not checked; cysteine pairing not given here; UniProt P56552 1-54, looked up) [sweet-tasting protein obtained by recombinant production using the yeast Pichia pastoris]		1.1	1.34 ± 0.05
thaumatin		1.8	1.25 ± 0.01
B1	13.8 ± 0.2 µM		

Reference: publication PMC11945486, “TAS1R2/TAS1R3 Single-Nucleotide Polymorphisms Affect Sweet Taste Receptor Activation by Sweeteners: The SWEET Project” (Nutrients, 2025)
